From PMC7580722, “Design of new disubstituted imidazo[1,2-b]pyridazine derivatives as selective Haspin inhibitors. Synthesis, binding mode and anticancer biological evaluation” (Journal of Enzyme Inhibition and Medicinal Chemistry, 2020)

Columns and labels:
HsHaspin = target: T1, HsHaspin (Homo sapiens, UniProt Q8TF76); experiment: Recombinant Haspin kinase assay ([γ-33P]ATP, 15 µM ATP; some values ADP-Glo); format: biochemical; settings: recombinant HsHaspin, in vitro
T1 construct: aa470-798; made in house; host or cells: E. coli
T1 sequence (Q8TF76 470-798): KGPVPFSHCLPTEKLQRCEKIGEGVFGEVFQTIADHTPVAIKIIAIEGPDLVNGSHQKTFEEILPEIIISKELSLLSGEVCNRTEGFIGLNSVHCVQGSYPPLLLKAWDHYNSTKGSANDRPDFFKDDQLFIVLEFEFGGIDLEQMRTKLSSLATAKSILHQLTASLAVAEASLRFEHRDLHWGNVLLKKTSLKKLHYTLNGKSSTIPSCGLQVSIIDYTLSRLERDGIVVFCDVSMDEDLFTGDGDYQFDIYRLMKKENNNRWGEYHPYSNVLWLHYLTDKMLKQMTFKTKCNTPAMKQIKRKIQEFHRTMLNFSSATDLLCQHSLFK
Procedure: (§1) Values are IC50 expressed in µM and calculated from dose–response curves (each point on the curves was performed in triplicate). Selectivity indexes (SI; in brackets) are calculated as follows: SI = IC50 kinase X/IC50 Haspin. ND: not determined. *IC50 values obtained using the ADP-Glo methodology (see Experimental section, Supplementary Material). […]
A, HsCdk9/Cyclin T). Native SscCK1δ /ε and SscGSK3α/β were purified from pig brain whereas HsPlk1, HsCdk1 and HsAurora B were purchased from ProQinase and SignalChem respectively. Kinase assays were performed in […]
mCi/ml; PerkinElmer) in a final volume of 30 µl as previously reported 51. After 30 min incubation at 30°C, the reaction mix was spotted onto GE healthcare P81 phosphocellulose paper using a FilterMate Harvester (PerkinElmer), and the filter was extensively washed with a 1% phosphoric acid solution. The wet filter-bound radioactivity was determined in the presence of 20 µl scintillation fluid (GE healthcare) with a TopCount® Scintillation and Luminescence Counter (PerkinElmer). IC50 values were calculated from dose-response curves […]
Kinase activities using the ADP-Glo methodology (ADP-Glo Kinase Assay; Promega) were assayed according to the assay described in Nguyen et al. 52 and Ibrahim et al. 53. […]

RnDYRK1A = experiment: DYRK1A kinase assay; format: biochemical, Rn (rat); settings: SI = IC50 kinase X/IC50 Haspin
Procedure: as §1
The reaction was carried out as described in general procedure A using 4 (0.150 g, 0.58 mmol, 1 equiv.), 2-aminopyrimidine-5-boronic acid (0.122 g, 0.88 mmol, 1.5 equiv.) and Cs2CO3 (0.575 g, 1.75 mmol, 3 equiv.). The […]
The reaction was carried out as described in general procedure A using 4 (0.100 g, 0.39 mmol, 1 equiv.), 1-naphthaleneboronic acid (0.083g, 0.47 mmol, 1.2 equiv.) and Cs2CO3 (0.381 g, 1.17 mmol, 3 equiv.). The crude […]
Recombinant protein kinases were expressed and purified from E. coli (HsHaspin kinase domain aa470-798, HsCdk5/p25, RnDYRK1A kinase domain aa1-499, HsPIM1, MmCLK1) or baculovirus/Sf9 cells (HsCdk2/Cyclin A, HsCdk9/Cyclin T). […] The wet filter-bound radioactivity was determined in the presence of 20 µl scintillation fluid (GE healthcare) with a TopCount® Scintillation and Luminescence Counter (PerkinElmer). IC50 values were calculated from dose-response curves […]

U-2 OS spheroids = experiment: Spheroid (3D) viability, CellTiter-Glo; format: cell-based, human; settings: 5 µM, Figure 4(B)

IC50 (HsHaspin): 6 nM
selectivity for DYRK1A vs Haspin (RnDYRK1A): 50 fold
Structure (SMILES): c1cc2[nH]ncc2cc1-c1cnc2ccc(OC[C@@H]3CNCCO3)nn12 [Compound 21]
U-2 OS spheroid remaining viability (U-2 OS spheroids; 2 days): no effects
viability at 5 µM (U-2 OS spheroids; Homo sapiens, U2OS, 240 h, 10 days, read-out: U-2 OS spheroid viability): 69%
